Experimental data as given in patent publication US9913858B2, “Prevention and treatment of toxicosis” (priority 2013, dated 2018).
Marks after values point to notes of the source that are not given here.

Tests used:
[1] = tested on: lolitrem B toxicosis (Rye Grass Staggers); test: Electromyography, tremor intensity; format: in vivo, sheep; settings: lolitrem B intoxicated, EMG
Method: EMGs were recorded on entry to the trial, entry to the end of trial (Day 1) and date of post mortem (Day 3) using Powerlab™ (ADInstruments, Castle Hill, Australia) and data recorded using LabChart™ software (ADInstruments, Australia). In preparation, the fleece was shorn from an area over the triceps muscle and along brachiocephalicus muscle of the neck. EMG electrodes were attached to the skin using SuperGlue™. Muscle activity was recorded for a minimum of three minutes with the animal standing at rest with a band pass filter set at 100 Hz. Three minute EMG recordings were taken using Ag—AgCl surface electrodes over the triceps muscle on to entry to the trial, on first day of falling (Day 1) and 48 hours post treatment (Day 3). Data analysis was achieved by application of a Fast-Fourier transformation for statistical comparison. Area under the curve was then calculated at frequencies between 5 and 30 Hz to estimate tremor intensity.

[2] = tested on: lolitrem B toxicosis (Rye Grass Staggers); test: Clinical and neurological signs in sheep fed lolitrem B-containing toxic feed with or without potassium bromide; format: in vivo
Method: Animals were exposed to a controlled diet containing 0.16 mg/kg body weight (BW) lolitrem B toxin rising to 0.27 mg/kg BW after 21 days exposure to toxic feed. Toxin was delivered as perennial rye grass seed (GA66 AR98, Grasslanz Technology Ltd, NZ) containing very high levels of lolitrem B toxin (11 ppm DM) as a component of the animal's feed intake.
On entry to the trial, all animals receiving toxic feed were exposed to a diet containing experimental ryegrass seed with a final lolitrem B concentration of 0.08 mg/kg LW, lucerne chaff and molasses 30% w/v for 3 days. After this induction period, the toxin content of the feed was increased to 0.16 mg/kg LW for the duration of the trial. […] Ryegrass seed constituted up to 65% of available Feed on Offer (FOO) by dry weight contributing a metabolisable energy of 12.1 Mj/kg DM.
At entry to the trial, all animals were subjected to a full clinical examination. Live weight was recorded. Venous blood and urine samples were collected for laboratory. Animals were also subjected to gait analysis, neurological examination including proprioceptive testing, cranial nerve examination and papillary light and menace reflexes. Electromyography (EMG) of tricep and neck muscles was performed. Gait analysis (see below) was repeated at three day intervals until onset of significant clinical signs and/or gait abnormality at which point animals were subjected to gait analysis daily. Gait analysis was recorded on video each occasion.
General clinical signs were also noted on a daily basis; these included observations of nervousness or agitation, changes in normal placement of body, limb or head position changes in faecal consistency, feeding behaviour or water consumption, observeable tremor of the body or head, eye position (strabismus) and movement (nystagmus), locomotory disturbances, or any other clinical changes worthy of note. Feed and water intake was monitored daily for the duration of the trial. Heart rate, respiration rate at rest and rectal temperature were also monitored daily.
Prophylactic sheep received a split loading dose of 300 mg/kg on day 1, 120 mg/kg (100 mg LD+20 mg/kg daily maintenance dose) on day 2, 120 mg/kg on day 3 and 20 mg/kg daily for the duration of the trial. An acute treatment dose of 300 mg/kg LW was used for the trial. Both prophylactic and acute treatment doses were envisaged to give serum concentrations of 750 to 1000 μg/ml for the duration of the initial weeks of the trial.
Group 1—Negative Control: lucerne chaff only;
Group 2—Positive Control: lucerne chaff containing 0.16 mg/kg LW lolitrem B;
Prophylactic treatment sheep (Groups 4 & 5) received a split loading dose of 300 mg/kg on day 1 of the trial, 120 mg/kg (100 mg LD 20 mg/kg daily maintenance dose) on day 2, 120 mg/kg on day 3 and 20 mg/kg daily thereafter. Acute therapy sheep were dosed with a single dose of 300 mg/kg on day of falling.
End of the trial was defined for Groups 2 and 3 as date of falling. Group 1 animals entered the end of trial protocol with their Group 2 counterparts. Group 4 and 5 animals entered the end of trial protocol after 22 days. This end of trial protocol consisted of the following analysis: • On Day 1: animals were subjected to a full clinical examination, gait analysis, urine and blood collection, neurological examination and EMG. • On Day 2: further gait analysis was recorded, • On Day 3: animals were again subjected to full clinical examination, gait analysis, urine and blood collection, neurological examination and EMG as well as live weight recorded prior to necropsy.

[3] = tested on: lolitrem B toxicosis (Rye Grass Staggers); test: Gait analysis and time to falling; format: in vivo, sheep; settings: for time to falling: by context untreated, toxin only
Method: Gait analysis was performed on entry to the trial and at designated time points throughout the trial as described above. To achieve this, animals were moved from their individual pens to an external yard in their cohort groups (five animals, one from each treatment). Animals were then encouraged to move at a run, initially in a group and then individually, for a minimum of three minutes per animal whilst their movement was captured on video and gait observations recorded.
Once all animals had been analysed the whole cohort was returned to their individual pens. Gait abnormalities such as stumbling, falling or disorientation were noted, including observation of Type 1 or Type 2 gait changes as described in Combs et, al., (2014). Type I movement disorder is defined as an impaired alternating movement (dysdiadochokinesia), bunny-hopping gait and failure to maintain an appropriate direction. Type 2 movement disorder is defined by increasing rigidity of limbs on forced movement resulting finally in tonic fore and hind limb extension with the animal collapsing into sternal or lateral recumbency (Combs, Rendell et at 2014). Scores between those denoted above were considered as a gradation between the stated clinical observations. Analysis of gait was performed using the following scale in Table 2 and a composite score noted for each animal for each day during the end of trial protocol. A total score out of 30 was determined for each animal. The higher the score the greater the locomotory disturbance. Time to falling was determined post trial by analysis of video material,
Animals that met the entry criteria (severe Type 2 gait abnormality and falling) were submitted to the end-of-trial protocol. […] Animals were subjected to the following tests on days 1 and 3: gait analysis, full neurological examination, venous blood and urine sampling and EMG. Only gait analysis was performed on day 2.

[4] = sheep, Group 3: toxic feed plus single oral 300 mg/kg KBr on day of falling
[5] = sheep, Group 4: toxic feed plus prophylactic oral KBr (300, 120, 120 then 20 mg/kg daily), 22 days
[6] = sheep, Group 5: prophylactic oral KBr only, no toxic feed, 22 days
[7] = sheep, Group 2: toxic feed (lolitrem B 0.16 mg/kg LW), no treatment

`[Br-].[K+]` [potassium bromide] was tested, and the “Day 1: Day 3 tremor intensity ratio” value ([1]; Group 3 sheep, acute KBr treatment) was 0.81, the “Altered stance, mean number of days to onset (+/−s.e.m.)” value (“Altered stance, mean number of days” below) [2, 4] was 10.22(+/−2.10) days and the “Altered stance, number of animals affected” value (shortened to “Altered stance, number”) [2, 4] was 9/9. The “Fine tremor, mean number of days to onset (+/−s.e.m.)” value (shortened to “Fine tremor, mean number of days”) [2, 4] was 12.43(+/−4.82) days, the “Fine tremor, number of animals affected” value [2, 4] was 7/9 and the “First clinical signs, mean number of days to onset (+/−s.e.m.)” value (from here on “First clinical signs, mean number”) [2, 4] was 8.56(+/−1.94) days. For the same molecule, the “First clinical signs, number of animals affected” value (from here on “First clinical signs, number”) [2, 4] was 9/9, the “Major body clonus, mean number of days to onset (+/−s.e.m.)” value (“Major body clonus, mean number of days” below) [2, 4] was 11.67(+/−2.88) days and the “Major body clonus, number of animals affected” value (from here on “Major body clonus, number”) [2, 4] was 3/9. The “animals showing evidence of mild anxiolysis” value ([2]; sheep, Group 4: toxic feed plus prophylactic oral KBr) was “^aIncludes 4/9 animals showing evidence of mild anxiolysis”, the “Altered stance, mean number of days” value [2, 5] was 8.33(+/−1.22) days and the “Altered stance, number” value [2, 5] was 9/9. For the same molecule, the “Fine tremor, mean number of days” value [2, 5] was 12.14(+/−4.45) days, the “Fine tremor, number of animals affected” value [2, 5] was 7/9 and the “First clinical signs, mean number” value [2, 5] was 6.33(+/−1.73) days. The “First clinical signs, number” value [2, 5] was 9/9^a, the “Major body clonus, mean number of days” value [2, 5] was 10.67(+/−2.65) days and the “Major body clonus, number” value [2, 5] was 5/9. The “altered stance reported earlier than in toxin-only counterparts” value ([2]; sheep, Group 4 versus Groups 2 and 3) was “approximately two”, the “animals showing evidence of mild anxiolysis” value ([2]; sheep, Group 5: prophylactic oral KBr only) was “^bIncludes 5/9 animals showing evidence of mild anxiolysis” and the “Altered stance, mean number of days” value [2, 6] was 11.0(+/−4.69) days. For the same molecule, the “Altered stance, number” value [2, 6] was 4/9, the “Fine tremor, mean number of days” value [2, 6] was 11.00(+/−0.0) days and the “Fine tremor, number of animals affected” value [2, 6] was 1/9. The “First clinical signs, mean number” value [2, 6] was 10.75(+/−4.46) days, the “First clinical signs, number” value [2, 6] was 8/9^b and the “Major body clonus, mean number of days” value [2, 6] was 0 days. For the same molecule, the “Major body clonus, number” value [2, 6] was 0/9, the “range of onset of mild mood changes” value ([2]; sheep, potassium bromide at the prophylactic dose) was 4 to 17 days and the “composite gait score, Day 1 (pre-treatment) to Day 2 (24 hours post treatment)” value ([3]; Group 3 sheep, lolitrem B toxin, oral 300 mg/kg LW potassium bromide, p=0.001) was “significant reduction”. For the same molecule, the “time to falling in intoxicated animals” value ([3]; intoxicated sheep, oral 300 mg/kg BW potassium bromide on day of falling) was “significantly improve”, the “animals failing to fall when driven to movement for a continuous period of 5 minutes” value ([3]; intoxicated sheep, oral 300 mg/kg BW potassium bromide on day of falling, 24 and 48 hours after treatment) was 8/9 and the “animals progressing to falling in the designated 22 days of treatment” value ([3]; sheep, prophylactic potassium bromide plus toxic feed (Group 4)) was “one”.
`CC(C)=C[C@H]1O[C@H]2[C@H]3O[C@@]34[C@H](CC[C@@]3(C)[C@@]4(O)CC[C@H]4Cc5c([nH]c6ccc7c(c56)C[C@@H]5[C@@H](C7=O)C(C)(C)OC5(C)C)[C@@]43C)O[C@@H]2C(C)(C)O1` [lolitrem B] was tested, and the “Day 1: Day 3 tremor intensity ratio, median” value ([1]; Group 2 sheep, no treatment) was 2.03, the “time from Type 1 to Type 2 gait changes” value ([2]; intoxicated sheep) was “approximately 9 days” and the Menace reflex ([2]; lolitrem B intoxicated sheep) was “either lost or reduced”. The pupillary light reflex ([2]; lolitrem B intoxicated sheep) was “normal”, the “Ventral strabismus, animals affected” value ([2]; sheep, Group 2 (toxin only)) was 9/9 and the “Altered stance, mean number of days” value [2, 7] was 11.78(+/−2.58) days. For the same molecule, the “Altered stance, number” value [2, 7] was 9/9, the “Fine tremor, mean number of days” value [2, 7] was 8.22(+/−2.58) days and the “Fine tremor, number of animals affected” value [2, 7] was 9/9. The “First clinical signs, mean number” value [2, 7] was 7.56(+/−2.06) days, the “First clinical signs, number” value [2, 7] was 9/9 and the “Major body clonus, mean number of days” value [2, 7] was 17.33(+/−3.51) days. The “Major body clonus, number” value [2, 7] was 3/9, the “Ventral strabismus, animals affected” value ([2]; sheep, Group 3 (toxin, acute KBr on day of falling)) was 7/9 and the “Ventral strabismus, animals affected” value ([2]; sheep, Group 4 (toxin plus prophylactic KBr)) was 6. For the same molecule, the “composite gait scores over the same time course” value ([3]; Group 2 sheep, untreated intoxicated, p=0.05) was “increase”, the “animals falling, no improvement over the same time period” value ([3]; positive control sheep, toxic feed, not treated with potassium bromide) was 7/7 and the time to falling ([3]; printed as Group 3 Day 2) was 59.0 ± 23.50 s. For the same molecule, the time to falling ([3]; printed as Group 3 Day 3) was 51.52 ± 20.23 s and the “animals progressing to falling over the same timeframe (22 days)” value ([3]; sheep, Groups 2 and 3, toxic feed) was 5.
